These results are taken from patent publication EP0172632B1, “Benzopyrano[4,3,2-cd]indazole compounds, processes for their production and pharmaceutical compositions comprising the compounds” (WARNER-LAMBERT COMPANY, priority 1984, dated 1986).

Assay [1] deals with Salmonella typhimurium. The assay can be described thus: in vitro antibacterial (ABMF) microdilution susceptibility test. Format: cell-based. To be noted: Salmonella enterica, Mueller-Hinton broth microdilution, 37°C, 16-24 hours, read-out: ABMF Minimal Inhibitory Concentration (µ/ml) S. typh. An excerpt:
(§1) Still another test protocol is the in vitro antibacterial (ABMF) test which is a recognized standard microdilution susceptibility procedure in Mueller-Hinton broth against Gram-positive and Gram-negative bacterial test organisms. The procedure is a modification of a state-of-the-art procedure reported in Manual of Clinical Microbiology, Lennette, E. H., ed., by Barry, A. L. and C. Thornsberry at pages 463-474 and by Gavan, T. L. and A. L. Barry at pages 459―462, American Society for Microbiology, Washington, 1980.
(§2) In the test, a given bacterial culture is used to inoculate individual test wells of microdilution trays containing growth medium and test compound, the latter in a microdilution series: 1000, 333.111, 37,12, 4, 1.4, and 0.46 micrograms per milliliter. […] For convenience, values are reported for Escherichia coli, Corynebacterium Sp. ATCC 21698, Salmonella typhimurium, Streptococcus pneumoniae, and Rhodotorula aurantiaca.
Background: Broth dilution looks for growth in wells or tubes with falling amounts of substance.

For assay [2], the system named is Corynebacterium Sp. ATCC 21698. The assay is described as above. The conditions noted are these: ATCC21698, Mueller-Hinton broth microdilution, 37°C, 16-24 hours, read-out: ABMF Minimal Inhibitory Concentration (µ/ml) Coryn. sp. The class given is cell-based.
Description: as §1, §2

Assay [3] concerns Escherichia coli. The description is as above. The class given is cell-based. To be noted: read-out: ABMF Minimal Inhibitory Concentration (µ/ml) E. coli.
Description: as §1, §2

Assay [4] concerns Streptococcus pneumoniae. Described as above. Format: cell-based. The conditions noted are these: Mueller-Hinton broth microdilution, 37°C, 16-24 hours, read-out: ABMF Minimal Inhibitory Concentration (µ/ml) S. pneum.
Description: as §1, §2

Assay [5] relates to Rhodotorula aurantiaca. The description is as above. The class given is cell-based. To be noted: Buckleyzyma aurantiaca; Mueller-Hinton broth microdilution, 37°C, 16-24 hours; read-out: ABMF Minimal Inhibitory Concentration (µ/ml) R. aurant.
Description: as §1, §2

The subject of assay [6] is L1210 cells. The experiment in a line: L1210 in vitro cell growth inhibition. The class given is cell-based. The conditions noted are these: Mus musculus, 72 h; L1210 murine leukemia cells, three days incubation, 50% inhibition of growth; read-out: L1210 in vitro ID50. As for the experimental part:
Another test protocol uses L1210 cells, a murine leukemia cell line, grown in RPMI 1640 supplemented with 5% fetal bovine serum and gentamicin ([…]). Drug dilutions are prepared in the appropriate solvent and 20 µl of each dilution are added to 24-well Linbro tissue culture plates, followed by the addition of 2.0 ml of cell suspension containing 3 x 10^4 cells per ml. Solvent and medium controls are included in each test. After incubation at 37°C for three days in 5% CO2, the contents of each well are removed and the cells counted in a ZBI Counter counter. Percent growth are calculated relative to the controls and the levels of drug activity are expressed as ID50 in moles per liter.

For assay [7], the system named is lymphocytic leukemia P388. The assay can be described thus: in vivo lymphocytic leukemia P388 test. The conditions noted are these: Mus musculus, P388, ip, 120 h, mice, survival time treated/control, read-out: P388 in vivo T/C×100; for response vs control in vivo at 12.5 mg/kg: Dose 12.5 mg/kg intraperitoneally once daily for five days; for response vs control in vivo at 25 mg/kg: Dose 25 mg/kg intraperitoneally once daily for five days. The method, then: Another test protocol is the in vivo lymphocytic leukemia P388 test. The animals used are either male or female CD2F, mice. There are six or seven animals per test group. The tumor transplant is by intraperitoneal injection of dilute ascitic fluid containing cells of lymphocytic leukemia P388. The test compounds are administered intraperitoneally once daily for five consecutive days at various doses following tumor inoculation. The animals are weighed and survivors are recorded on a regular basis for 30 days. A compound is designated "toxic" if, at a given dose, all animals died prior to four days after the first injection of drug. A ratio of survival time for treated (T)/control (C) animals is calculated. A criterion for efficacy is a ratio T/C times 100 greater than or equal to 125. See Cancer Chemotherapy Reports, Part 3, 3, 1 (1972) for a comprehensive discussion of the protocol.

Setting [8] is: Mueller-Hinton broth microdilution, 37°C, 16-24 hours.

Where a name gives a salt, the structure may show the parent alone. Read-outs that look alike come from different tables or passages of the source. Some results are limits rather than exact numbers.

Turning to `CCN(CC)CCn1nc2c3c(c(N)ccc31)Oc1ccc(O)cc1-2.Cl.Cl` [Example 12, 5-Amino-N,N-diethyl-9-hydroxy-2H-[1]benzopyrano[4,3,2-cd]indazole-2-ethanamine, dihydrochloride], the MIC in assay [1] is 111 µg/mL; in assay [2] it was 12.3 µg/mL; in assay [3], 111 µg/mL; in assay [4] it was 12.3 µg/mL; in assay [5] it was more than 1000 µg/mL. Further, in assay [6], the IC50 was 71 nM. Further, in assay [7] (Dose 6.25 mg/kg intraperitoneally once daily for five days), the response vs control in vivo at 6.25 mg/kg was 167%. In addition, in assay [7], the response vs control in vivo at 12.5 mg/kg was found to be 201%. Moreover, the response vs control in vivo at 25 mg/kg in assay [7] worked out at 192%.

`CCN(CC)CCn1nc2c3c(c(NCCN)ccc31)Oc1ccc(OC)cc1-2` [Example 6, 1-[2-[2-(Diethylamino)ethyl]-9-methoxy-2H-[1]benzopyrano-[4,3,2-cd]ndazole-5-yl]-1,2-ethanediamine, trihydrobromide]: the MIC in assay [1] was determined as 111 µg/mL; in assay [2] it was 4.1 µg/mL; in assay [3], 111 µg/mL; in assay [4], 12.3 µg/mL; in assay [5], 333 µg/mL. For the same compound, in assay [6], the IC50 turned out to be 1100 nM. Moreover, in assay [7], the response vs control in vivo at 12.5 mg/kg amounted to 154%. The response vs control in vivo at 25 mg/kg in assay [7] was found to be 145%.

As for `O=[N+]([O-])c1ccc2c3c(nn2CCN2CCCC2)-c2cc(O)ccc2Oc13` [Example 10, 5-Nitro-2[2-(1-pyrrolidinyl)ethyl]-2H-[1]benzopyrano[4,3,2-cd]indazole-9-ol, methanesulfonate], the MIC in assay [1] was 1.4 µg/mL; in assay [2] it was less than 0.46 µg/mL; in assay [3] (setting [8]) it was more than 1000 µg/mL; in assay [4] it was less than 0.46 µg/mL; in assay [5], 1000 µg/mL. For the same compound, the IC50 in assay [6] amounted to 3.5 nM.

For the compound `COc1ccc2c(c1)-c1nn(CCN3CCCC3)c3ccc(N)c(c13)O2` [Example 9, 9-Methoxy-2-[2-(1-pyrrolidinyl)ethyl]-2H-[1]benzopyrano[4,3,2-cd]indazole-2-amine, monohydrochloride], the MIC was 111 µg/mL in assay [1]; 4.1 µg/mL in assay [2]; 12.3 µg/mL in assay [3] (setting [8]); 4.1 µg/mL in assay [4]; 333 µg/mL in assay [5]. Besides, the IC50 in assay [6] stood at 360 nM.

On to `CCN(CC)CCn1nc2c3c(c([N+](=O)[O-])ccc31)Oc1cc(O)ccc1-2` [Example 20, 5-Nitro-2-[2-(diethylamino)ethyl]-2H-[1]benzopyrano[4,3,2-cd]indazol-8-0l, hydrochloride], for which the MIC in assay [1] was 12.3 µg/mL; in assay [2] it was less than 0.46 µg/mL; in assay [3] (setting [8]), 1.4 µg/mL; in assay [4], less than 0.46 µg/mL; in assay [5], more than 1000 µg/mL. Moreover, the IC50 in assay [6] was determined as 870 nM.

Consider `COc1ccc2c(c1)-c1nn(CCN3CCCC3)c3ccc([N+](=O)[O-])c(c13)O2.Cl` [Example 8, 9-Methoxy-5-nitro-2-[2-(1-pyrrolidinyl)ethyl]-2H-[1]benzopyrano[4,3,2-cd]indazole, monohydrochloride], for which the MIC in assay [1] was 37 µg/mL; in assay [2], less than 0.46 µg/mL; in assay [3] (setting [8]), more than 1000 µg/mL; in assay [4], less than 0.46 µg/mL; in assay [5], 111 µg/mL. The IC50 in assay [6] was determined as 2000 nM.

In the case of `CCN(CC)CCn1nc2c3c(c([N+](=O)[O-])ccc31)Oc1cc(OC)ccc1-2` [Example 19, 5-Nitro-2-[2-(diethylamino)ethyl]-8-methoxy-2H [1]benzopyrano[4,3,2-cd]indazol, hydrochloride], the MIC in assay [1] was 37 µg/mL; in assay [2], less than 0.46 µg/mL; in assay [3] (setting [8]), less than 0.46 µg/mL; in assay [4], less than 0.46 µg/mL; in assay [5] it was 333 µg/mL. In assay [6], the IC50 was determined as 2200 nM.
